These compounds were tested against Cdk9/cyclinT1 (Homo sapiens, UniProt P50750) (assay: Cdk9/cyclinT1 IMAP Protocol (fluorescence polarization kinase assay)). Conditions: Cdk9_cyclinT1_IC50, Table V; generated using one of the two Cdk9/cyclinT1 assays (IMAP or Alpha Screen), not stated which; ATP 6 uM.
Cdk9/cyclinT1, sequence (P50750 whole entry): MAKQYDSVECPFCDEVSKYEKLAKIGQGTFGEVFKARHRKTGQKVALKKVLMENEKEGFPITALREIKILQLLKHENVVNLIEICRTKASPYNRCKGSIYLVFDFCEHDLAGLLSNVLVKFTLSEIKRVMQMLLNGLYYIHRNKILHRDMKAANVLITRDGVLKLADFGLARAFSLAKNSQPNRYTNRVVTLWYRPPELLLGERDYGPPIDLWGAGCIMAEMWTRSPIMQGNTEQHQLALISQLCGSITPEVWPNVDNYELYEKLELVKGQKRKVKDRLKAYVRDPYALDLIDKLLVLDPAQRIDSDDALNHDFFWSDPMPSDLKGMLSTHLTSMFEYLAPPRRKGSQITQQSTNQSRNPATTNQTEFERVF
Cdk9/cyclinT1, sequence (O60563 whole entry partner): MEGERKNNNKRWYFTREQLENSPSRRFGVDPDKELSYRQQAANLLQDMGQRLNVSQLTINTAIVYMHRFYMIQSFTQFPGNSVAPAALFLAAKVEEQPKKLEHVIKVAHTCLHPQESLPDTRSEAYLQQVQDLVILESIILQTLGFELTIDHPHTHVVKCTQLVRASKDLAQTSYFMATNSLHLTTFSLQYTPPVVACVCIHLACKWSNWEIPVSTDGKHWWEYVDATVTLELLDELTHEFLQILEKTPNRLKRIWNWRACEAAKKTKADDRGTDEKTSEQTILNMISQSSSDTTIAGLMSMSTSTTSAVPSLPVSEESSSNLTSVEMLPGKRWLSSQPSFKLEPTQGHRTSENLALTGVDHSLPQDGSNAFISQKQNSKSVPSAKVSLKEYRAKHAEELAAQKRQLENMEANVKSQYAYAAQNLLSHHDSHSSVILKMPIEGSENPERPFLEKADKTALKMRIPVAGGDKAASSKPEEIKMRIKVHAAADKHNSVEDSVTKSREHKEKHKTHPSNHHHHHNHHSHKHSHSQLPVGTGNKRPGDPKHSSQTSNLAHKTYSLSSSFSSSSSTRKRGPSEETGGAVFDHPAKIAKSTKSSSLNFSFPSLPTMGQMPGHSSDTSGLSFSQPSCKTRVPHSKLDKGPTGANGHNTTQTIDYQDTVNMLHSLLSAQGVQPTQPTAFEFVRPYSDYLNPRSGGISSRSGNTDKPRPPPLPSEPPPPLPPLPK

SMILES	IC50 [nM]
O=C(Nc1cc(-c2cccc(NCC3CCOCC3)n2)c(Cl)cn1)[C@H]1CN[C@@H](CF)C1 [Example 179, (3R,5R)-5-Fluoromethyl-pyrrolidine-3-carboxylic acid {5′-chloro-6-[(tetrahydro-pyran-4-ylmethyl)-amino]-[2,4′]bipyridinyl-2′-yl}-amide]	7
O=C(Nc1cc(-c2cccc(NCC3CC3)n2)c(Cl)cn1)[C@@H]1CCCNC1 [Example 20, (R)-Piperidine-3-carboxylic acid [5′-chloro-6-(cyclopropylmethyl-amino)-[2,4′]bipyridinyl-2′-yl]-amide]	44
O=C(Nc1cc(-c2cccc(NCC3CCCCC3)n2)c(Cl)cn1)[C@H]1CCCNC1 [Example 38, (S)-Piperidine-3-carboxylic acid [5′-chloro-6-(cyclohexylmethyl-amino)-[2,4′]bipyridinyl-2′-yl]-amide]	23
CC1(C)CC(CNc2cccc(-c3cc(NC(=O)[C@H]4CNCCO4)ncc3Cl)n2)CCO1 (stereo partly drawn) [Example 120, (R)-Morpholine-2-carboxylic acid {5′-chloro-6-[(2,2-dimethyl-tetrahydro-pyran-4-ylmethyl)-amino]-[2,4′]bipyridinyl-2′-yl}-amide]	< 8
O=C(Nc1cc(-c2nc(NCC3CCOCC3)ccc2Cl)c(Cl)cn1)[C@H]1CNCCO1 [Example 101, (R)-Morpholine-2-carboxylic acid {3,5′-dichloro-6-[(tetrahydro-pyran-4-ylmethyl)-amino]-[2,4′]bipyridinyl-2′-yl}-amide]	8
CC1(C)COC[C@H](CNc2cccc(-c3cc(NC(=O)[C@@H]4CCCNC4)ncc3Cl)n2)O1 (single isomer, unassigned) [Example 234]	3
O=C(Nc1cc(-c2cccc(NCc3ccncc3)n2)c(Cl)cn1)[C@@H]1CCCNC1 [Example 54, (R)-Piperidine-3-carboxylic acid {5′-chloro-6-[(pyridin-4-ylmethyl)-amino]-[2,4′]bipyridinyl-2′-yl}-amide]	< 8
CC(=O)N1CCC[C@@H](C(=O)Nc2cc(-c3cccc(NCC4CCOCC4)n3)c(Cl)cn2)C1 [Example 82, (R)-1-acetyl-piperidine-3-carboxylic acid {5′-chloro-6-[(tetrahydro-pyran-4-ylmethyl)-amino]-[2,4′]bipyridinyl-2′-yl}-amide]	631

The remaining lines, values ahead:

IC50 [nM]	SMILES
1	CC1(CNc2nc(-c3cc(NC(=O)[C@@H]4CCCNC4)ncc3Cl)ccc2F)CCOCC1 [Example 208, (R)-Piperidine-3-carboxylic acid {5′-chloro-5-fluoro-6-[(4-methyl-tetrahydro-pyran-4-ylmethyl)-amino]-[2,4′]bipyridinyl-2′-yl}-amide]
56	O=C(Nc1cc(-c2cccc(NCC3CCOCC3)n2)c(Cl)cn1)c1cccnc1 [Example 71, N-{5′-Chloro-6-[(tetrahydro-pyran-4-ylmethyl)-amino]-[2,4′]bipyridinyl-2′-yl}-nicotinamide]
1	COC[C@@H]1C[C@@H](C(=O)Nc2cc(-c3cccc(NCC4(C)CCOCC4)n3)c(Cl)cn2)CN1 [Example 239, (3R,5S)-5-Methoxymethyl-pyrrolidine-3-carboxylic acid {5′-chloro-6-[(4-methyl-tetrahydro-pyran-4-ylmethyl)-amino]-[2,4′]bipyridinyl-2′-yl}-amide]
2	CC1(C)C[C@@H](CNc2cccc(-c3cc(NC(=O)[C@@H]4CCCNC4)ncc3Cl)n2)CCO1 (single isomer, unassigned) [Example 116, (R)-piperidine-3-carboxylic acid {5′-chloro-6-[((S)-2,2-dimethyl-tetrahydro-pyran-4-ylmethyl)-amino]-[2,4′]bipyridinyl-2′-yl}-amide or (R)-piperidine-3-carboxylic acid {5′-chloro-6-[((R)-2,2-dimethyl-tetrahydro-pyran-4-ylmethyl)-amino]-[2,4′]bipyridinyl-2′-yl}-amide]
2	COC(=O)N1CCC[C@H](C(=O)Nc2cc(-c3nc(NC[C@H]4CCOC(C)(C)C4)ccc3Cl)c(Cl)cn2)C1 (single isomer, unassigned) [Example 175]
